Measurements: patent US20220025004A1, “COMPOSITIONS AND METHODS RELATED TO SITE-SPECIFIC IDENTIFICATION OF RNA MODIFICATIONS” (The University of Chicago, priority 2018, published 2022)
Where a SMILES comes first, the peptide text is derived from it. The star is where a group is joined. Cbz = O=C(OCc1ccccc1)*; CHN2 = [N-]=[N+]=C*; tBu = CC(C)(C)*

How the values were obtained:
Flt3L-DCs = assay: Cross-priming capacity of Flt3L-DCs pre-treated with CA-074 and/or cathepsin L inhibitor III, co-cultured with necrotic B16-OVA (IFN-γ production); format: cell-based, mouse; settings: 5 μg/ml inhibitor for 2 h, necrotic B16-OVA 16 h, OT-I cells 3 days, FIG. 12F
Experimental: (§1) For cross-presentation of tumor neoantigen, CD11b^+ or CD8^+ DC were purified from draining lymph node of WT or Ythdf1^−/− mice six days after inoculating with B16-OVA, MC38-OTIp or MC38-EGFR-SIY. OT-I or 2C naive CD8^+ T cells were isolated from lymph nodes and spleen of 6 to 12-week-old mice. Negative selection was carried out with a negative CD8 isolation kit (StemCell Technologies, Inc.) following manufacturer's instruction. DCs were co-cultured with OT-1 naive CD8 T cells at the ratio of 1:10 for three days with or without 1 μg/ml SIINFEKEL peptide. For cross-presentation of soluble OVA, splenic DCs were sorted and stimulated with 100 ng/ml LPS overnight. DCs were then pulsed with different concentration of OVA (endotoxin free, Sigma) for 5 hours. Cells were washed and co-cultured with OT-I naive CD8^+ T cells for three days. For in vitro cross-presentation of tumor neoantigen, Flt3L-DCs were collected on day 9-10 and co-cultured with necrotic B16-OVA tumor cells overnight. B220^−CD11c^+ cells were subsequently purified. […] IFN-T production was detected by IFN-γ Flex Set CBA assay (BD Bioscience). […] The cross-priming capacity of DC was analyzed by the dilution of CTV in CD8^+ T cells. […] The cross-priming capacity of DCs was then evaluated by the IFN-γ production. […]

wild-type DCs = assay: Cross-priming capacity of wild-type DCs pre-treated with cathepsin inhibitor E64 (ex vivo cDCs, CTV dilution; GMDCs, IFN-γ CBA); format: cell-based, mouse; settings: E64 0.04 μM (ex vivo cDCs, OVA protein) or 0.2-2 μM (GMDCs, B16-OVA); OT-I T cells; FIGS. 12D-12E
Experimental: as §1

B16-OVA tumors = assay: Cathepsin blockade in vivo: B16-OVA tumor growth after intratumoral E64; set-up: species or system mouse; settings: WT mice, s.c. B16-OVA, E64 intratumorally (5 μM or 50 μM) on day 11; FIG. 4B
Experimental: About 1×10^6 B16-OVA or MC38 tumor cells were injected s.c. into the flank of mice. Tumor volumes were measured by length (a) and width (b) and calculated as tumor volume=ab^2/2. Mice with tumor volumes less than 200 mm^3 are considered to be survival. For in vivo depletion experiments, 200 μg of anti-CD8 antibody (clone YTS169.4) or anti-NK1.1 (clone PK136) was injected i.p. three days after tumor inoculation. To block cathepsins in vivo, mice were inoculated with 1×10^6 B16-OVA cells. On day 11, mice with established tumors were treated with E64 intratumorally. For anti-PDL1 treatment, 1×10^6 B16-OVA tumor cells were s.c. injected into the flank of mice. Tumors were allowed to grow for seven days and treated i.p. by anti-PDL1 (clone10F.9G2) or Rat Ig. Tumor-free mice after treatment were monitored over time and the percentage of tumor-regression was calculated. To block IFNγ, tumor-bearing mice were treated with 50 μg anti-IFNγ mAb (clone XMG1.2) intratumorally and PD-L1 expression on tumor cells was evaluated by flow cytometry. All antibodies were ‘InVivoMAb’ from BioXCell. For adoptive transfer of T cells. Rag mice were inoculated with 5×10^5 B16-OVA on day 0. On the same day, T cells were purified from WT or Ythdf1^−/− mice using T cell negative isolation Kit (STEM CELL). 5×10^6 T cells were intravenously (i.v.) injected into Rag2^−/− mice.

Structure (SMILES) | efficiency of cross-priming in wild-type DCs (Flt3L-DCs) | efficiency of cross-priming in wild-type DCs (wild-type DCs) | in vivo antitumor response (B16-OVA tumors)
CCCNC(=O)[C@H]1O[C@@H]1C(=O)N[C@H](C(=O)N1CCC[C@H]1C(=O)OC)[C@@H](C)CC [CA-074] | notably enhanced | – | –
CC(C)C[C@H](NC(=O)[C@H]1O[C@@H]1C(=O)O)C(=O)NCCCCN=C(N)N [E64] | – | notably enhanced | markedly improved
CC(C)(C)Oc1ccc(C[C@H](NC(=O)[C@H](Cc2ccccc2)NC(=O)OCc2ccccc2)C(=O)C=[N+]=[N-])cc1 [cathepsin L inhibitor III] (Cbz-Phe-Tyr(tBu)-CHN2) | notably enhanced | – | –
